Measured values from patent publication US11099176B2 (priority 2015, dated 2021).
Where two headings read alike, the source gives them in different places.

Key:
[1] = target: Marinobacter sp. msLacBP6 variant W11C, Acrylodan conjugate; assay: Fluorescence titration of conjugate; format: binding; conditions: λ1 473, λ2 520 nm
[2] = target: Marinobacter sp. msLacBP6 variant Y187C (187C), SEQ ID NO: 38, Acrylodan conjugate; assay: Fluorescence titration of conjugate; format: binding
[3] = target: T1, Marinobacter adhaerens maLacBP8 variant F189C, SEQ ID NO: 43, Acrylodan conjugate (Marinobacter adhaerens, UniProt E4PNW2, C105A/C90A/F252C); assay: Fluorescence titration of conjugate; format: binding
T1 construct: Acrylodan on Cys189

[4] = system: Anaeromyxobacter dehalogenans adLacBP9 variant F191C, SEQ ID NO: 44, Acrylodan conjugate; assay: Fluorescence titration of conjugate; format: binding; parameters: key: nb: no binding
Procedure: (§1) 12-, 24-, or 48-point logarithmic titration series were prepared on a Tecan Freedom liquid-handling robot, using an in-house program, ‘TitrationPlate’, that compiles an abstract description of a multi-component titration series into machine instructions for operating the robot. Temperature-dependent fluorescence emission intensities of 20 μL aliquots, each containing 10 μM protein, were measured in 384-well microtiter plates in a LightCycler 480 II (Roche) using excitation and emission wavelengths available for this instrument that most closely matched the optical characteristics of the fluorescent conjugate. Temperatures were advanced in 1K steps. At each temperature, data was collected at 1-second intervals for 60 seconds at which point the signal had relaxed to a steady value associated with the new temperature. […] The in-house program ‘TitrationMeltPlate’ was used to convert these observations into time-independent datasets that record fluorescence as a function of temperature for each well and associate wells with their concentration of titrant and additive. Management tools were developed to maintain a database of titrations and their analyses.
(§2) Ligand- and wavelength-dependent emission intensities were recorded on a Nanodrop3300 (Thermo Scientific) at room temperature. Using the LED closest to the optimal excitation wavelength of the fluorophore (UV, 365 nm; blue, 470 nm; ‘white’, 460-550 nm).
(§3) Monochromatic emission intensities Iλ (these intensities correspond to a bandpass intensity, recorded either with a physical filter in the case of the Roche LightCycler, or by integrating in the interval λ−δ, λ+δ in the case of an emission spectrum), were fit to Iλ=^apoβλ(1−ytrue)+^satβλytrue 1 where ^apoβλ and ^satβλ are the fluorescence baselines associated with the ligand-free and ligand-bound states of the protein, respectively, and ytrue the fractional saturation of the protein (Layton and Hellinga, 2010, Biochemistry, 49, 10831-41). Baseline functions can be constant, linear, or a second-order polynomial.

[5] = system: Anaeromyxobacter dehalogenans adLacBP9 variant F191C, SEQ ID NO: 44, Badan conjugate; assay: Fluorescence titration of conjugate; format: binding; parameters: key: nb: no binding
Procedure: as §1, §2, §3

[6] = target: Marinobacter sp. msLacBP6 variant 187C, P150S, SEQ ID NO: 55, Badan conjugate; assay: Fluorescence titration of conjugate (affinity tuning); format: binding; conditions: read-out: trueKd (lactate); monochromatic, 528 nm
[7] = target: Marinobacter sp. msLacBP6 variant 187C, 70M, SEQ ID NO: 53, Acrylodan conjugate, immobilized on Ni-NTA beads; assay: Lactate titration of immobilized conjugate on magnetic Ni-NTA beads; conditions: read-out: trueKd (lactate), λ1 452, λ2 525 nm

T1 sequence (E4PNW2 entry or part of it C90A/C105A/F252C): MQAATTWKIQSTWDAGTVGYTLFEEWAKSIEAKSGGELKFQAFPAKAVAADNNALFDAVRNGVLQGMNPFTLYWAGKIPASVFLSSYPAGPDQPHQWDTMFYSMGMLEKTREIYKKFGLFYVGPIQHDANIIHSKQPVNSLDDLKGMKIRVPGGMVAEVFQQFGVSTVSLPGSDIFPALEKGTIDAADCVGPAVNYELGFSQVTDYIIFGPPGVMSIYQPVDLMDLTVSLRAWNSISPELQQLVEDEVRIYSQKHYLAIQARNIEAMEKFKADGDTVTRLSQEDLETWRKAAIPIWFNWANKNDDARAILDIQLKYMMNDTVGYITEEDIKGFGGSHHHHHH

C[C@H](O)C(=O)O [lactate]
Kd ([1]; read-out: appKd (lactate)): 400 µM
Kd ([1]; read-out: trueKd (lactate)): 400 µM
Kd ([2]; read-out: appKd (lactate), approximate, text statement for Acrylodan and Badan conjugates): ~400 µM
Kd ([2]; read-out: appKd (lactate), λ1 452, λ2 482 nm as printed in Table 5): 400 µM
Kd ([2]; read-out: appKd (lactate), λ1 452, λ2 582 nm (FIG. 5A, Table 7)): 400 µM
Kd ([2]; read-out: appKd (lactate), λ1 483, λ2 451 nm (Table 6)): 230 µM
Kd ([2]; read-out: trueKd (lactate), λ1 452, λ2 482 nm as printed in Table 5): 300 µM
Kd ([2]; read-out: trueKd (lactate), λ1 452, λ2 582 nm (FIG. 5A, Table 7)): 300 µM
Kd ([2]; read-out: trueKd (lactate), λ1 483, λ2 451 nm (Table 6)): 350 µM
Kd [3]: 1500 µM
appKd (lactate) [4]: nb
trueKd (lactate) [4]: nb
appKd (lactate) [5]: nb
trueKd (lactate) [5]: nb
Kd [6]: 14400 µM
Kd [7]: 1200 µM
